The record followed here is ChEMBL document CHEMBL1201862, “PubChem BioAssay data set” (2004).

SMILES strings stand for the structures.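 All cell lines were grown in 96-well plates and treated with compound for 48 hours. At the GI50, growth is halved.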 The source made the active and inactive calls. No stated cut-off is given here; in the data, active = GI50 up to about 1.1 µM and inactive = higher.

Experiment in all cases: growth of human tumour cells (NCI), 48 h
For experiment [1], the system named is Hs-578T.
Experiment [2] concerns NCI-H23.
The subject of experiment [3] is OVCAR-5.
For experiment [4], the system named is RXF 393.
Experiment [5] deals with COLO 205.
Experiment [6] concerns SW-620.
Experiment [7] concerns NCI-H460.
Experiment [8] has as its system U-251.
The subject of experiment [9] is HT-29.
Experiment [10] relates to PC-3.
Experiment [11] relates to SNB-19.
For experiment [12], the system named is SN12C.
Experiment [13] relates to 786-0.
In experiment [14] the test system is SF-295.
In experiment [15] the test system is NCI-H522.
Experiment [16] concerns NCI/ADR-RES.
Experiment [17] deals with KM12.
Experiment [18] has as its system RPMI-8226.
Experiment [19] concerns HL-60.
Experiment [20] deals with TK-10.

As to `Cc1oc2nc1C(=O)NCc1nc(cs1)C(=O)N[C@H](C(C)C)c1nc(cs1)C(=O)N[C@H]2C`, the GI50 in experiment [1] was 75.3 µM (inactive); in experiment [2] it was > 100 µM (inactive); in [3], > 100 µM (inactive); in experiment [4], 8.34 µM (inactive); in experiment [5], 75.7 µM (inactive); in experiment [6], > 100 µM (inactive). For the same molecule, the GI50 is 66.7 µM (inactive) in experiment [7]; > 100 µM (inactive) in [8]; 65 µM (inactive) in experiment [9]; 40.3 µM (inactive) in [10]; > 100 µM (inactive) in [11]; 58.5 µM (inactive) in experiment [12]. Further, the GI50 in experiment [13] was 57.4 µM (inactive); in [14], 18.4 µM (inactive); in experiment [15], 26.7 µM (inactive); in [16], 30.1 µM (inactive); in experiment [17], 61.4 µM (inactive); in experiment [18], 14.3 µM (inactive).
With `O=C(Cc1cc(=O)oc2cc(O)ccc12)N/N=C/c1ccc(N(CCCl)CCCl)cc1`, the GI50 was 26.1 µM (inactive) in [1]; 22.3 µM (inactive) in experiment [2]; 25.6 µM (inactive) in experiment [3]; 16.6 µM (inactive) in [4]; 29.2 µM (inactive) in experiment [5]; 34.1 µM (inactive) in [6]. Moreover, the GI50 in [7] was 13.8 µM (inactive); in experiment [8] it was 17.4 µM (inactive); in experiment [9], 22.2 µM (inactive); in experiment [10], 17.9 µM (inactive); in experiment [11], 21.1 µM (inactive); in experiment [12] it was 17.7 µM (inactive). Besides, the GI50 in [19] was 14.5 µM (inactive); in experiment [13] it was 18.8 µM (inactive); in [14], 18.1 µM (inactive); in experiment [15], 20.9 µM (inactive); in [16], 84.1 µM (inactive); in experiment [17], 32.4 µM (inactive). For the same molecule, the GI50 in experiment [18] was 16.4 µM (inactive).
For `Nc1ccc2nc(-c3ccccn3)c(-c3ccccn3)nc2c1`, the GI50 in experiment [1], in experiment [3], in experiment [4], in experiment [5], in experiment [6] and in experiment [7] was > 100 µM (inactive) in each case. Also, the GI50 in experiment [8], in experiment [10], in [11], in experiment [12], in [19] and in experiment [13] was > 100 µM (inactive) throughout. Further, the GI50 in experiment [20], in [14], in experiment [15], in [16], in experiment [17] and in experiment [18] was > 100 µM (inactive) each time.
As for `COCCCN1C(=O)C2c3[nH]c4ccccc4c3C3CCC(C(C)(C)C)CC3C2C1=O` (stereo not given), the GI50 in [1] is 32.1 µM (inactive); in experiment [2], 27 µM (inactive); in experiment [4], 21.3 µM (inactive); in experiment [5], > 10 µM (inactive); in experiment [6], 30.6 µM (inactive); in [7] it was 18.7 µM (inactive). In addition, the GI50 was 17.7 µM (inactive) in experiment [8]; 15.3 µM (inactive) in [9]; 19.1 µM (inactive) in [10]; 33 µM (inactive) in experiment [11]; 21.4 µM (inactive) in experiment [12]; 23.4 µM (inactive) in [19]. For the same molecule, the GI50 was 22.7 µM (inactive) in experiment [13]; 59.3 µM (inactive) in experiment [20]; 24.1 µM (inactive) in [14]; 21.7 µM (inactive) in experiment [15]; > 10 µM (inactive) in [16]; 20.7 µM (inactive) in [17]. For the same molecule, the GI50 in experiment [18] was 22.6 µM (inactive).
As for `NNC(=O)CS(=O)(=O)Nc1ncccn1`, the GI50 in experiment [1], in experiment [2], in [3], in experiment [4], in experiment [5] and in experiment [6] was > 100 µM (inactive) throughout. In addition, the GI50 in experiment [7], in [8], in experiment [9], in experiment [10], in experiment [11] and in experiment [12] was > 100 µM (inactive) each time. Moreover, the GI50 in experiment [13] was > 100 µM (inactive); in experiment [20] it was 13.2 µM (inactive); in experiment [14], > 100 µM (inactive); in experiment [15], > 100 µM (inactive); in experiment [16], > 100 µM (inactive); in [17], > 100 µM (inactive). In addition, the GI50 in experiment [18] is > 100 µM (inactive).
With `CCC(=O)OCc1ccc2oc(=O)c(C(=O)Oc3cncc(Cl)c3)cc2c1`, the GI50 in [1] is > 100 µM (inactive); in experiment [2], 52.2 µM (inactive); in experiment [3], > 100 µM (inactive); in experiment [4], 37.4 µM (inactive); in experiment [5] it was 71.6 µM (inactive); in experiment [6], > 100 µM (inactive). The GI50 was > 100 µM (inactive) in experiment [7]; > 100 µM (inactive) in experiment [8]; 76 µM (inactive) in experiment [9]; 46 µM (inactive) in experiment [10]; > 100 µM (inactive) in experiment [11]; 42.7 µM (inactive) in experiment [12]. The GI50 is 74.1 µM (inactive) in [13]; 97.5 µM (inactive) in experiment [20]; > 100 µM (inactive) in experiment [14]; 29.2 µM (inactive) in experiment [15]; > 100 µM (inactive) in [16]; > 100 µM (inactive) in experiment [17]. For the same molecule, the GI50 in experiment [18] is > 100 µM (inactive).
With `O=C(OCCC12CC3CC(CC(C3)C1)C2)c1ccc(NCc2cc(O)ccc2O)cc1`, the GI50 is 0.213 µM (active) in experiment [1]; 0.689 µM (active) in experiment [2]; 0.638 µM (active) in experiment [4]; 0.34 µM (active) in [5]; 1.63 µM (inactive) in experiment [6]; 1.51 µM (inactive) in experiment [7]. In addition, the GI50 is 0.445 µM (active) in [8]; 1.94 µM (inactive) in experiment [9]; 0.573 µM (active) in experiment [10]; 1.26 µM (inactive) in [11]; 0.719 µM (active) in [12]; 0.176 µM (active) in experiment [19]. The GI50 in experiment [13] is 1.28 µM (inactive); in experiment [20] it was 1.52 µM (inactive); in experiment [14], 2.02 µM (inactive); in experiment [15], 0.148 µM (active); in experiment [16], 0.687 µM (active); in experiment [17] it was 0.69 µM (active). The GI50 in experiment [18] was 0.172 µM (active).
`O=C1NC(=O)C(c2c[nH]c3cc(Br)ccc23)=C1c1cnc[nH]1`: the GI50 in [1] was 52.7 µM (inactive); in experiment [3] it was > 100 µM (inactive); in experiment [4] it was 39 µM (inactive); in experiment [5] it was 15.6 µM (inactive); in experiment [6] it was 55.8 µM (inactive); in [7], 24 µM (inactive). The GI50 was 32.5 µM (inactive) in experiment [8]; 26.2 µM (inactive) in [9]; 24.7 µM (inactive) in experiment [10]; > 100 µM (inactive) in experiment [11]; 53.3 µM (inactive) in experiment [12]; 20.4 µM (inactive) in experiment [19]. In addition, the GI50 in [13] was 50 µM (inactive); in experiment [20], 34.9 µM (inactive); in experiment [14], 16.3 µM (inactive); in experiment [15], 31.8 µM (inactive); in experiment [16], > 100 µM (inactive); in [17], 21.1 µM (inactive). Moreover, the GI50 in experiment [18] was 30.8 µM (inactive).
